Measured values as given in ChEMBL document CHEMBL4265925, “Synthesis of 5H-pyrido[3,2-b]pyrrolizin-5-one tripentone analogs with antitumor activity” (Eur J Med Chem, 2018).
One block for each compound: values may come before it. Calls of active or inactive are those of the source. The calls are words filed in the database; no cut-off is given here.

Legend:
Sus scrofa [1] = species on record: Sus scrofa; assay: Induction of porcine brain tubulin polymerization at 10 uM measured every 20 secs for 60 mins
HCT-116 [2] = assay: Antiproliferative activity against human HCT116 cells after 72 hrs by MTT assay; format: functional, cell-based; details: HCT-116, 72 h
MCF7 [3] = assay: Antiproliferative activity against human MCF7 cells after 72 hrs by MTT assay; format: functional, cell-based; details: MCF7, 72 h
Caco-2 = assay: Cytotoxicity against human Caco2 cells assessed as reduction in cell viability at 1 to 10 uM after 72 hrs by MTT assay; format: cell-based; details: caco-2, 72 h
MCF7 [4] = assay: Induction of apoptosis in human MCF7 cells assessed as viable cells at 3 uM measured after 48 hrs by Annexin-V-FITC/propidium iodide staining based flow cytometric method (reference value: 99.9%); format: functional; details: MCF7, 48 h, read-out: Activity
MCF7 [5] = assay: Cell cycle arrest in human MCF7 cells assessed as decrease in accumulation at S phase at 3 uM after 48 hrs by propidium iodide/RNase staining based FACS analysis; format: functional
MCF7 [6] = assay: Cell cycle arrest in human MCF7 cells assessed as decrease in accumulation at G1 phase at 3 uM after 48 hrs by propidium iodide/RNase staining based FACS analysis; format: functional
HCT-116 [7] = assay: Cell cycle arrest human HCT116 cells assessed as increase in accumulation at subG0/G1 phase at 0.1 uM after 48 hrs by propidium iodide/RNase staining based FACS analysis; format: functional
HCT-116 [8] = assay: Cell cycle arrest human HCT116 cells assessed as decrease in accumulation at G1 phase at 0.1 uM after 48 hrs by propidium iodide/RNase staining based FACS analysis; format: functional
MCF7 [9] = assay: Induction of apoptosis in human MCF7 cells assessed as necrotic cells at 3 uM measured after 48 hrs by Annexin-V-FITC/propidium iodide staining based flow cytometric method (reference value: 0%); format: functional
HCT-116 [10] = assay: Cell cycle arrest human HCT116 cells assessed as decrease in accumulation at S phase at 0.1 uM after 48 hrs by propidium iodide/RNase staining based FACS analysis; format: functional
HCT-116 [11] = assay: Induction of apoptosis in human HCT116 cells assessed as viable cells at 0.1 uM measured after 48 hrs by Annexin-V-FITC/propidium iodide staining based flow cytometric method (reference value: 99.6%); format: functional; details: HCT-116, 48 h, read-out: Activity
HCT-116 [12] = assay: Induction of apoptosis in human HCT116 cells assessed as necrotic cells at 0.1 uM measured after 48 hrs by Annexin-V-FITC/propidium iodide staining based flow cytometric method (reference value: 0%); format: functional
HCT-116 [13] = assay: Induction of apoptosis in human HCT116 cells assessed as early apoptotic cells at 0.1 uM measured after 48 hrs by Annexin-V-FITC/propidium iodide staining based flow cytometric method (reference value: 0.4%); format: functional
HCT-116 [14] = assay: Induction of apoptosis in human HCT116 cells assessed as late apoptotic cells at 0.1 uM measured after 48 hrs by Annexin-V-FITC/propidium iodide staining based flow cytometric method (reference value: 0%); format: functional
MCF7 [15] = assay: Induction of apoptosis in human MCF7 cells assessed as early apoptotic cells at 3 uM measured after 48 hrs by Annexin-V-FITC/propidium iodide staining based flow cytometric method (reference value: 0.1%); format: functional
Sus scrofa [16] = species on record: Sus scrofa; assay: Inhibition of porcine brain tubulin polymerization at 25 uM measured every 20 secs for 60 mins
MCF7 [17] = assay: Cell cycle arrest in human MCF7 cells assessed as increase in accumulation at G2/M phase at 3 uM after 48 hrs by propidium iodide/RNase staining based FACS analysis; format: functional
HCT-116 [18] = assay: Cell cycle arrest human HCT116 cells assessed as increase in accumulation at G2/M phase at 0.1 uM after 48 hrs by propidium iodide/RNase staining based FACS analysis; format: functional
MCF7 [19] = assay: Cell cycle arrest in human MCF7 cells assessed as increase in accumulation at subG0/G1 phase at 3 uM after 48 hrs by propidium iodide/RNase staining based FACS analysis; format: functional
MCF7 [20] = assay: Induction of apoptosis in human MCF7 cells assessed as late apoptotic cells at 3 uM measured after 48 hrs by Annexin-V-FITC/propidium iodide staining based flow cytometric method (reference value: 0%); format: functional
[21] = Inhibition of sheep brain tubulin polymerization incubated at 37 degreeC for 10 mins followed by incubated at 0 degreeC for 5 mins; design: species or system Ovis aries
MCF7 [22] = assay: Induction of apoptosis in human MCF7 cells assessed as necrotic cells at 2 uM measured after 48 hrs by Annexin-V-FITC/propidium iodide staining based flow cytometric method (reference value: 0%); format: functional
HCT-116 [23] = assay: Cell cycle arrest human HCT116 cells assessed as increase in accumulation at G2/M phase at 0.2 uM after 48 hrs by propidium iodide/RNase staining based FACS analysis; format: functional
HCT-116 [24] = assay: Induction of apoptosis in human HCT116 cells assessed as early apoptotic cells at 0.2 uM measured after 48 hrs by Annexin-V-FITC/propidium iodide staining based flow cytometric method (reference value: 0.4%); format: functional
MCF7 [25] = assay: Induction of apoptosis in human MCF7 cells assessed as early apoptotic cells at 2 uM measured after 48 hrs by Annexin-V-FITC/propidium iodide staining based flow cytometric method (reference value: 0.1%); format: functional
HCT-116 [26] = assay: Induction of apoptosis in human HCT116 cells assessed as late apoptotic cells at 0.2 uM measured after 48 hrs by Annexin-V-FITC/propidium iodide staining based flow cytometric method (reference value: 0%); format: functional
MCF7 [27] = assay: Induction of apoptosis in human MCF7 cells assessed as late apoptotic cells at 2 uM measured after 48 hrs by Annexin-V-FITC/propidium iodide staining based flow cytometric method (reference value: 0%); format: functional
HCT-116 [28] = assay: Induction of apoptosis in human HCT116 cells assessed as necrotic cells at 0.2 uM measured after 48 hrs by Annexin-V-FITC/propidium iodide staining based flow cytometric method (reference value: 0%); format: functional
MCF7 [29] = assay: Induction of apoptosis in human MCF7 cells assessed as viable cells at 2 uM measured after 48 hrs by Annexin-V-FITC/propidium iodide staining based flow cytometric method (reference value: 99.9%); format: functional; details: MCF7, 48 h, read-out: Activity
MCF7 [30] = assay: Cell cycle arrest in human MCF7 cells assessed as decrease in accumulation at S phase at 2 uM after 48 hrs by propidium iodide/RNase staining based FACS analysis; format: functional
MCF7 [31] = assay: Cell cycle arrest in human MCF7 cells assessed as increase in accumulation at subG0/G1 phase at 2 uM after 48 hrs by propidium iodide/RNase staining based FACS analysis; format: functional
MCF7 [32] = assay: Cell cycle arrest in human MCF7 cells assessed as increase in accumulation at G2/M phase at 2 uM after 48 hrs by propidium iodide/RNase staining based FACS analysis; format: functional
HCT-116 [33] = assay: Cell cycle arrest human HCT116 cells assessed as decrease in accumulation at S phase at 0.2 uM after 48 hrs by propidium iodide/RNase staining based FACS analysis; format: functional
MCF7 [34] = assay: Cell cycle arrest in human MCF7 cells assessed as decrease in accumulation at G1 phase at 2 uM after 48 hrs by propidium iodide/RNase staining based FACS analysis; format: functional
HCT-116 [35] = assay: Induction of apoptosis in human HCT116 cells assessed as viable cells at 0.2 uM measured after 48 hrs by Annexin-V-FITC/propidium iodide staining based flow cytometric method (reference value: 99.6%); format: functional; details: HCT-116, 48 h, read-out: Activity
HCT-116 [36] = assay: Cell cycle arrest human HCT116 cells assessed as increase in accumulation at subG0/G1 phase at 0.2 uM after 48 hrs by propidium iodide/RNase staining based FACS analysis; format: functional
HCT-116 [37] = assay: Cell cycle arrest human HCT116 cells assessed as decrease in accumulation at G1 phase at 0.2 uM after 48 hrs by propidium iodide/RNase staining based FACS analysis; format: functional
HCT-116 [38] = assay: Induction of apoptosis in human HCT116 cells assessed as early apoptotic cells at 0.3 uM measured after 48 hrs by Annexin-V-FITC/propidium iodide staining based flow cytometric method (reference value: 0.4%); format: functional
HCT-116 [39] = assay: Cell cycle arrest human HCT116 cells assessed as increase in accumulation at subG0/G1 phase at 0.3 uM after 48 hrs by propidium iodide/RNase staining based FACS analysis; format: functional
HCT-116 [40] = assay: Induction of apoptosis in human HCT116 cells assessed as necrotic cells at 0.3 uM measured after 48 hrs by Annexin-V-FITC/propidium iodide staining based flow cytometric method (reference value: 0%); format: functional
HCT-116 [41] = assay: Cell cycle arrest human HCT116 cells assessed as decrease in accumulation at S phase at 0.3 uM after 48 hrs by propidium iodide/RNase staining based FACS analysis; format: functional
HCT-116 [42] = assay: Cell cycle arrest human HCT116 cells assessed as increase in accumulation at G2/M phase at 0.3 uM after 48 hrs by propidium iodide/RNase staining based FACS analysis; format: functional
HCT-116 [43] = assay: Induction of apoptosis in human HCT116 cells assessed as late apoptotic cells at 0.3 uM measured after 48 hrs by Annexin-V-FITC/propidium iodide staining based flow cytometric method (reference value: 0%); format: functional
HCT-116 [44] = assay: Cell cycle arrest human HCT116 cells assessed as decrease in accumulation at G1 phase at 0.3 uM after 48 hrs by propidium iodide/RNase staining based FACS analysis; format: functional
HCT-116 [45] = assay: Induction of apoptosis in human HCT116 cells assessed as viable cells at 0.3 uM measured after 48 hrs by Annexin-V-FITC/propidium iodide staining based flow cytometric method (reference value: 99.6%); format: functional; details: HCT-116, 48 h, read-out: Activity

SMILES: CC(=O)O[C@H]1C(=O)[C@@]2(C)[C@H]([C@H](OC(=O)c3ccccc3)[C@]3(O)C[C@H](OC(=O)[C@H](O)[C@@H](NC(=O)c4ccccc4)c4ccccc4)C(C)=C1C3(C)C)[C@]1(OC(C)=O)CO[C@@H]1C[C@@H]2O
- Activity (Sus scrofa [1]): Active

SMILES: O=C(N/N=C1/c2cccnc2-n2cccc21)c1cccs1
- IC50 (HCT-116 [2]): 460 nM
- IC50 (MCF7 [3]): 3150 nM
- Activity (Caco-2): Non-Toxic

SMILES: COc1ccc(-c2csc3c2-n2cccc2C3=O)cc1O
- IC50 [21]: 2900 nM

SMILES: O=C(N/N=C1/c2ncccc2-n2cccc21)c1ccccc1
- GI50 (HCT-116 [2]): 4250 nM
- GI50 (MCF7 [3]): 20700 nM

SMILES: O=C(N/N=C1/c2cccnc2-n2cccc21)c1ccc(O)cc1
- IC50 (HCT-116 [2]): 2540 nM
- IC50 (MCF7 [3]): 16100 nM
- Activity (Caco-2): Non-Toxic

SMILES: O=C(N/N=C1/c2cc(Br)cnc2-n2cccc21)c1ccc(O)cc1
- IC50 (HCT-116 [2]): 1660 nM
- IC50 (MCF7 [3]): 15600 nM
- Activity (Caco-2): Non-Toxic

SMILES: Nc1ccc(C(=O)N/N=C2/c3cc(Br)cnc3-n3cccc32)cc1
- Activity (MCF7 [22]): 0%
- Activity (HCT-116 [38]): 32.9%
- Activity (MCF7 [25]): 24.8%
- Activity (HCT-116 [39]): Active
- IC50 (HCT-116 [2]): 230 nM
- Activity (MCF7 [27]): 0%
- Activity (HCT-116 [40]): 0%
- Activity (HCT-116 [41]): Active
- viability at 2 µM (MCF7 [29]): 75.2%
- Activity (MCF7 [30]): Active
- Activity (MCF7 [31]): Active
- Activity (MCF7 [32]): Active
- Activity (HCT-116 [42]): Active
- IC50 (MCF7 [3]): 1800 nM
- Activity (HCT-116 [43]): 0%
- Activity (MCF7 [34]): Active
- Activity (HCT-116 [44]): Active
- inhibition (Sus scrofa [16]): inactive
- viability at 0.3 µM (HCT-116 [45]): 67%
- Activity (Caco-2): Non-Toxic

More lines, main results first:

- IC50 (HCT-116 [2]): 110 nM
- IC50 (MCF7 [3]): 3400 nM
- inhibition (Sus scrofa [16]): inactive
SMILES: O=C(N/N=C1/c2cc(Br)cnc2-n2cccc21)c1ccncc1
- viability at 3 µM (MCF7 [4]): 76%
- Activity (MCF7 [5]): Active
- Activity (MCF7 [6]): Active
- Activity (HCT-116 [7]): Active
- Activity (HCT-116 [8]): Active
- Activity (MCF7 [9]): 0%
- Activity (HCT-116 [10]): Active
- viability at 0.1 µM (HCT-116 [11]): 73.3%
- Activity (HCT-116 [12]): 0%
- Activity (HCT-116 [13]): 26.7%
- Activity (HCT-116 [14]): 0%
- Activity (MCF7 [15]): 24%
- Activity (MCF7 [17]): Active
- Activity (HCT-116 [18]): Active
- Activity (Caco-2): Non-Toxic
- Activity (MCF7 [19]): Active
- Activity (MCF7 [20]): 0%

- IC50 (HCT-116 [2]): 170 nM
- IC50 (MCF7 [3]): 1610 nM
- inhibition (Sus scrofa [16]): inactive
SMILES: O=C(N/N=C1/c2cc(Br)cnc2-n2cccc21)c1ccco1
- Activity (MCF7 [22]): 0%
- Activity (HCT-116 [23]): Active
- Activity (HCT-116 [24]): 31.5%
- Activity (MCF7 [25]): 21.8%
- Activity (HCT-116 [26]): 0%
- Activity (MCF7 [27]): 0%
- Activity (HCT-116 [28]): 0%
- viability at 2 µM (MCF7 [29]): 78.2%
- Activity (MCF7 [30]): Active
- Activity (MCF7 [31]): Active
- Activity (MCF7 [32]): Active
- Activity (HCT-116 [33]): Active
- Activity (MCF7 [34]): Active
- viability at 0.2 µM (HCT-116 [35]): 68.4%
- Activity (HCT-116 [36]): Active
- Activity (Caco-2): Non-Toxic
- Activity (HCT-116 [37]): Active

- IC50 (HCT-116 [2]): 1740 nM
- IC50 (MCF7 [3]): 14900 nM
SMILES: O=C(N/N=C1/c2cc(Br)cnc2-n2cccc21)c1ccccc1
- Activity (Caco-2): Non-Toxic
